The values that follow come from patent publication US5741794A, “Heterocyclic sulfonamide derivatives as antagonists of PAF and angiotensin II” (British Biotech Pharmaceuticals Limited, priority 1992, dated 1998).

The test deals with T1, PAF receptor (Homo sapiens, UniProt P25105).
T1 construct: from tissue; host or cells: human platelets (platelet concentrates from a hospital blood bank), lysed platelet membranes
T1 sequence (P25105 whole entry): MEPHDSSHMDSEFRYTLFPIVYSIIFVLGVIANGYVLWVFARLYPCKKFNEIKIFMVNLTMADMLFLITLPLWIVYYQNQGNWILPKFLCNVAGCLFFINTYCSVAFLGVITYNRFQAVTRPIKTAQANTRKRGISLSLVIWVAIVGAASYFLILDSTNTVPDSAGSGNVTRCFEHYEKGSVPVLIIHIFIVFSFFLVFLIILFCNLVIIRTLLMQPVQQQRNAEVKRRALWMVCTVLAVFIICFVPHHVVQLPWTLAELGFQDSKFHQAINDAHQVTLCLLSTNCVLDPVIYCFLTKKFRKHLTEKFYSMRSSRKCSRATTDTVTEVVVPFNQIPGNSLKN
Description: Inhibition of [^3 H]-PAF Receptor Binding (human platelet plasma membrane). As to conditions: 0.5 nM [^3 H]-PAF, 0° C., 1 hour incubation, pH 7.0. As to the method: Inhibition of [^3 H]-PAF Receptor Binding
The inhibition of [^3 H]-PAF binding to human platelet plasma membrane by compounds of general formula I was determined by isotopic labelling and filtration techniques. Platelet concentrates were obtained from a hospital blood bank. These platelet concentrates (500-2500 mi.) were centrifuged at 800 rpm for 10 minutes in a SORVALL RC3B centrifuge to remove the red blood cells present. (The word SORVALL is a trade mark.) The supernatant was subsequently centrifuged at 3,000 rpm in a SORVALL RC3B centrifuge to pellet the platelets present. The platelet rich pellets were resuspended in a minimum volume of buffer (150 mM NaCl, 10 mM Tris, 2 mM EDTA, pH 7.5) and layered onto Ficoll-Paque gradients, 9 ml platelet concentrate to 2 ml Ficoll, and centrifuged at 1,900 rpm for 15 minutes in a SORVALL RT6000 centrifuge. This step removes the residual red blood cells and other nonspecific material such as lymphocytes from the preparation. The platelets which form a band between the plasma and the Ficoll were removed, resuspended in the above buffer and centrifuged at 3,000 rpm for 10 minutes in a SORVALL RT6000 centrifuge. The pelleted platelets were resuspended in buffer (10 mM Tris, 5 mM MgCl2, 2 mM EDTA, pH 7.0), snap freezed in liquid N2 and allowed to thaw slowly at room temperature in order to lyse the platelets. The latter step was repeated at least 3 times to ensure proper lysis. The lysed platelets were centrifuged at 3,000 rpm for 10 minutes in a SORVALL RT6000 centrifuge and resuspended in buffer. The latter step was repeated twice in order to remove any cytoplasmic proteins which may hydrolyse the platelet activating factor (PAF) receptor. The prepared platelet membranes may be stored at -70° C. After thawing the prepared membranes were centrifuged in a SORVALL RT6000 at 3,000 rpm for 10 minutes and resuspended in assay buffer.
The assay was conducted by preparing a series of Tris-buffered solutions of the selected antagonist of predetermined concentrations. […] Each washed residue was dried under vacuum on a sampling manifold and placed into vials containing 20 ml of OPTIPHASE MP scintillation fluid and the radioactivity counted in a liquid scintillation counter. (The word OPTIPHASE is a trade mark.) Defining the counts for total binding with antagonist from a test sample as "TBA"; the counts for total binding from the control sample C1 as "TB"; and the counts for nonspecific binding from the control sample C2 as "NSB", the percent inhibition of each test antagonist can be determined by the following equation: […]
`CCCCc1nc(Cl)c(CO)n1Cc1ccc(S(=O)(=O)N[C@@H](CC(C)C)C(=O)OCC)cc1` [Example 4, N-4-(1H-2-Butyl-4-chloro-5-hydroxymethylimidazolylmethyl)phenylsulphonyl-L-leucine ethyl ester] yielded an IC50 of 5 nM.
`CCOC[C@H](CC(C)C)NS(=O)(=O)c1ccc(Cn2cnc3cccnc32)cc1` [Example 45A, N-4-(3H-Imidazo[4,5-b]pyridylmethyl)phenylsulphonyl-L-leucinyl ethyl ether]: the IC50 was determined as 20 nM.
Turning to `CCOC(=O)[C@H](CC(C)C)NS(=O)(=O)c1ccc(Cn2ccnc2-c2ccccc2)cc1` [Example 1, N-4-(1H-2-Phenylimidazolylmethyl)phenylsulphonyl-L-leucine ethyl ester], the IC50 is 7 nM.
Under `CCc1nccn1Cc1ccc(S(=O)(=O)N(C)[C@@H](CC(C)C)C(=O)OC)cc1` [Example 43, N-Methyl-N-4-(1H-2-ethylimidazolylmethyl)phenylsulphonyl-L-leucine methyl ester] stands 5 nM.

In general, IC50 refers to the concentration needed to halve the response being measured. A low value points to inhibition by little substance.
